US11203754B2, “Microrna compositions and methods of making and using same” (Advanced ReGen Medical Technologies, LLC, priority 2016, dated 2021)

Key:
SNORD68 = assay: Exosomal RNA (ExoRNA) level, SNORD68, with inhibitors; format: cell-based; details: BCI-137 10 μM, GW4869 3.5 μM; NONE = 1
Description: (§1) Exosomes were collected and quantified to determine the effects of inhibitors on exosome production while RNA extracted from the exosomes were analyzed to determine exosome depletion and levels of RNA depletion.
(§2) SNORD68 and SNORD95 are small nucleolar RNAs.

[1] = tested on: adult stem cells in transwell culture; assay: Exosome production in transwell cultures with exosome inhibitors; format: cell-based; details: BCI-137 10 μM, GW4869 3.5 μM, added Day 0 and Day 3, NONE = 710
Description: A series of transwell experiments were carried out by placing adult stem cells of a donor subject (i.e., donor cells) in the upper chamber of a transwell assembly while the adult stem cells of a receiver subject (i.e. receiver cells) were placed in the lower chamber. Referring to FIG. 2, the transwell culture 400 comprised an insert 410 having a permeable surface that allows the donor cells to uptake and secrete molecules on the basal and/or apical surfaces of the transwell. The transwell insert 410 comprised a permeable membrane with a 0.4 μm pore size. At least a portion of the donor cell sample 420 was applied to the transwell insert 410 while the receiver cell sample 430 was positioned within the lower compartment of the transwell culture with an appropriate amount of culture media.
as §1

CD34+ cells [2] = assay: Effect of inhibitors on cell function (total cell vitality, CD34+ cell vitality, CD34+ cell expansion); details: inhibitor added to transwell culture
Description: (§3) To the transwell cultures was added either a pharmacological inhibitor of exosome biogenesis GW4869 (3.5 μM) or an inhibitor of exosome packaging BCI-137 (10 μM). […] Inhibitors were added to the transwell cultures upon initial seeding (Day 0) and again at Day 3.
(§4) Further analysis of the effect of the inhibitors on cell function was assessed by determining the total cell vitality, the CD34+ cell vitality and the extent of CD34+ cell expansion.

miRNAs in exosomes = assay: miRNA depletion in exosomes harvested from the heterochronic culture; format: cell-based
Description: as §1, §2

SNORD95 = assay: Exosomal RNA (ExoRNA) level, SNORD95, with inhibitors; format: cell-based; details: BCI-137 10 μM, GW4869 3.5 μM; NONE = 1
Description: as §1, §2

CD34+ cells [3] = assay: Effect of inhibitor on CD34+ differentiation potential and restoration; format: cell-based
Source text: as §2

CD34+ cells [4] = tested on: CD34+ cells
Description: as §3, §4

CD34+ stem cell = assay: microRNA nucleofection into mature blood cells: CD34+ clonogenicity (CFU-GM); format: cell-based, human; details: Table 8 Experiment #1; total 60 nM into mature blood cells; siRNA vehicle = 20, No Treatment = 10
Description: Candidate microRNAs involved in facilitating adoptive cellular restoration therapy were miR-146a, miR-103a, miR-106a and miR-19a. Combinations of candidate microRNAs were nucleofected at a total concentration of 60 nM into mature blood cells using the CD34+ cell human nucleofector kit (Lonza) and the human CD34+ cell protocol, and effect on CD34+ stem cell vitality and clonogenicity were evaluated compared to siRNA vehicle control. Further, the microRNA combination of miR-103a, miR-106b and miR-19a were nucleofected at a total concentration of 90 nM into mature blood cells using the P3 Primary Cell 4D-Nucleofector X Kit (Lonza) and the human T cell high efficiency protocol, and effect on T cell activation and cell-mediated cytotoxicity were evaluated compared to siRNA vehicle control. Additional candidate microRNAs involved in facilitating adoptive cellular restoration therapy identified were miR-1303, miR-7851-3p, miR-223, miR-4497, miR-619-5p and miR-1273f. Combinations of these additional candidate microRNAs were nucleofected at a total concentration of 60 nM into mature blood cells using the CD34+ cell human nucleofector kit (Lonza) and the human CD34+ cell protocol, and effect on CD34+ clonogenicity was evaluated compared to siRNA vehicle control.

CC(NS(=O)(=O)c1ccc2[nH]c(=O)c(=O)[nH]c2c1)C(=O)O (stereo not shown) [BCI-137]
Fold Change in ExoRNA SNORD68 (SNORD68): 0.24 Fold Change | Exosome Production (# exosomes × 10^8) [1]: 604 # exosomes × 10^8 | effect on the juvenile or mature cell health (CD34+ cells [2]): no effect | depletion of miRNAs in exosomes (miRNAs in exosomes): effectively depleted miRNAs | Fold Change in ExoRNA SNORD95 (SNORD95): 0.33 Fold Change | restorative effects of adoptive cell restoration (CD34+ cells [3]; inhibition by BCI-137): blocked the restorative effects | differentiation in CD34+ heterochronic cells (CD34+ cells [3]; inhibition with BCI-137): decreased | differentiation potential in the CD34+ mature cells (CD34+ cells [3]; inhibition with BCI-137): increased

O=C(/C=C/c1ccc(/C=C/C(=O)Nc2ccc(C3=NCCN3)cc2)cc1)Nc1ccc(C2=NCCN2)cc1 [GW4869]
Fold Change in ExoRNA SNORD68 (SNORD68): 0.43 Fold Change | toxicity to CD34+ cells (CD34+ cells [4]): appeared toxic | Exosome Production (# exosomes × 10^8) [1]: 558 # exosomes × 10^8 | depletion of miRNAs in exosomes (miRNAs in exosomes): effectively depleted miRNAs | Fold Change in ExoRNA SNORD95 (SNORD95): 0.67 Fold Change

miR-223: isolated microRNA miR-223-5p (SEQ ID NO:5) (CGUGUAUUUGACAAGCUGAGUU; listed as RNA, chemistry not given here; listed as Homo sapiens)
CD34+ Differentiation (# CFU-GM) (CD34+ stem cell): 10 # CFU-GM

miR-619-5p: isolated microRNA miR-619-5p (SEQ ID NO:8) (GCUGGGAUUACAGGCAUGAGCC; listed as RNA, chemistry not given here; listed as Homo sapiens)
CD34+ Differentiation (# CFU-GM) (CD34+ stem cell): 46 # CFU-GM

miR-1273f: isolated microRNA miR-1273f (SEQ ID NO:9) (GGAGAUGGAGGUUGCAGUG; listed as RNA, chemistry not given here; listed as Homo sapiens)
CD34+ Differentiation (# CFU-GM) (CD34+ stem cell): 9 # CFU-GM

miR-1303: isolated microRNA miR-1303 (SEQ ID NO:7) (UUUAGAGACGGGGUCUUGCUCU; listed as RNA, chemistry not given here; listed as Homo sapiens)
CD34+ Differentiation (# CFU-GM) (CD34+ stem cell): 32 # CFU-GM

miR-4497: isolated microRNA miR-4497 (SEQ ID NO:6) (CUCCGGGACGGCUGGGC; listed as RNA, chemistry not given here; listed as Homo sapiens)
CD34+ Differentiation (# CFU-GM) (CD34+ stem cell): 20 # CFU-GM

miR-7851-3p: isolated microRNA miR-7851-3p (SEQ ID NO:10) (UACCUGGGAGACUGAGGUUGGA; listed as RNA, chemistry not given here; listed as Homo sapiens)
CD34+ Differentiation (# CFU-GM) (CD34+ stem cell): 14 # CFU-GM
